Reference: PMC10673369, “Preliminary SAR of Novel Pleuromutilin–Polyamine Conjugates” (Microorganisms, 2023)

How the values were obtained:
[1] = tested on: K. pneumoniae ATCC 700603; test: MIC, CO-ADD broth microdilution, K. pneumoniae; format: cell-based, Klebsiella pneumoniae; conditions: for MIC: Klebsiella pneumoniae, ATCC700603, mean (n = 2)
Procedure: (§1) The susceptibility of bacterial strains S. aureus (ATCC 25923), E. coli (ATCC 25922), and P. aeruginosa (ATCC 27853 or PAO1) to antibiotics and compounds was determined using reported protocols. Additional antimicrobial evaluation against MRSA (ATCC 43300), Klebsiella pneumoniae (ATCC 700603), A. baumannii (ATCC 19606), Candida albicans (ATCC 90028), and Cryptococcus neoformans (ATCC 208821) was undertaken at the Community for Open Antimicrobial Drug Discovery at The University of Queensland (Australia) according to their standard protocols as reported previously. […]
(§2) 2.3. Antimicrobial Assays
The susceptibility of bacterial strains S. aureus (ATCC 25923), E. coli (ATCC 25922), and P. […]
baumannii (ATCC 19606), Candida albicans (ATCC 90028), and Cryptococcus neoformans (ATCC 208821) was undertaken at the Community for Open Antimicrobial Drug Discovery at The University of Queensland (Australia) according to their standard protocols as reported previously. For antimicrobial assays, the tested strains were cultured in either Luria broth (LB) (In Vitro Technologies, USB75852), nutrient broth (NB) (Becton Dickson, 234000), or MHB at 37 °C overnight. A sample of culture was then diluted 40-fold in fresh MHB and incubated at 37 °C for 1.5−2 h. The compounds were serially diluted 2-fold across the wells of 96-well plates (Corning 3641, non-binding surface), with compound concentrations ranging from 0.015 to 64 µg/ mL, and plated in duplicate. The resultant mid-log phase cultures were diluted to the final concentration of 1 × 10^6 CFU/mL; then, 50 µL was added to each well of the compound-containing plates, giving a final compound concentration range of 0.008 to 32 µg/mL and a cell density of 5 × 10^5 CFU/mL. All plates were then covered and incubated at 37 °C for 18 h. Resazurin was added at 0.001% final concentration to each well and incubated for 2 h before MICs […]
(§3) For C. neoformans, resazurin was added at 0.006% final concentration to each well and incubated for a further 3 h before MICs were determined by measuring […]
(§4) Colistin and vancomycin were used as positive bacterial inhibitor standards for Gram-negative and Gram-positive bacteria, respectively. Fluconazole was used as a positive fungal inhibitor standard for C. albicans and C. neoformans. The antibiotics were provided in […], with 3 above and 3 below its MIC value, and plated into the first 8 wells of column 23 of the 384-well NBS plates. The quality control (QC) of the assays was determined by the antimicrobial controls and the Z'-factor (using positive and negative controls). Each plate was deemed to fulfil the quality criteria (pass QC) if the Z'- […]
(§5) inhibition at their highest concentration, and no growth inhibition at their lowest concentration.
(§6) 2.4. Determination of the MICs of Antibiotics in the Presence of Synergizing Compounds

[2] = tested on: S. aureus ATCC 25923; test: MIC, broth dilution, S. aureus; format: cell-based; conditions: Staphylococcus aureus, ATCC25923, mean (n = 3)
Procedure: as §1, §2
The susceptibility of bacterial strains S. aureus (ATCC 25923), E. coli (ATCC 25922), and P. aeruginosa (ATCC 27853 or PAO1) to antibiotics and compounds was determined in microplates using the standard broth dilution method in accordance with the recommendations of the Comité de l’AntibioGramme de la Société Française de Microbiologie (CA-SFM). Briefly, the minimal inhibitory concentrations (MICs) were determined with an inoculum of 10^5 CFU in 200 µL of Mueller–Hinton broth (MHB) containing two-fold serial dilutions of each drug. The MIC was defined as the lowest […]
determine all MICs, the measurements were independently repeated in triplicate. Additional antimicrobial evaluation against MRSA (ATCC 43300), Klebsiella pneumoniae (ATCC 700603), A. baumannii (ATCC 19606), Candida albicans (ATCC 90028), and Cryptococcus neoformans (ATCC 208821) was undertaken at the Community for Open Antimicrobial Drug Discovery at The University of Queensland (Australia) according to their standard protocols as reported previously. […]
as §3, §4, §5, §6

[3] = Cytotoxicity assay, HEK293; format: cell-based; conditions: human; HEK293 cells; mean (n = 2); read-out: Cytotoxicity (IC50), concentration of compound at 50% cytotoxicity
Procedure: Cytotoxicity assays were conducted using reported protocols (see Supplementary File). […]
HEK293 cells were counted manually in a Neubauer hemocytometer and plated at a density of 5,000 cells/well into each well of the 384-well plates containing the 25x (2 µL) concentrated compounds [26,27]. The medium used was Dulbecco's modified Eagle’s medium (DMEM), supplemented with 10% fetal bovine serum (FBS). Cells were incubated together with the compounds for 20 h at 37 °C, 5% CO2.
To measure cytotoxicity, 5 µL (equals 100 µM final) of resazurin was added to each well after incubation and incubated for further 3 h at 37 °C with 5% CO2. After the final incubation, fluorescence intensity […]
reader. CC50 values (concentration at 50% cytotoxicity) were calculated by normalizing the fluorescence readout, with 74 µg/mL tamoxifen as negative control (0%) and normal cell growth as positive control (100%). The concentration-dependent percentage cytotoxicity was fitted to a dose–response function (using Pipeline Pilot) and CC50 values were determined. […]

[4] = tested on: human red blood cells; test: Hemolytic assay; format: cell-based; conditions: mean (n = 2)
Procedure: Hemolysis assays were conducted using reported protocols (see Supplementary File). […]
Human whole blood was washed three times with three volumes of 0.9% NaCl and then resuspended in the same solution to a concentration of 0.5 x 10^8 cells/mL, as determined by the manual cell count in a Neubauer hemocytometer. The washed cells were then added to the 384-well compound-containing plates for a final volume of 50 µL. After a 10 min shake on a plate shaker, the plates were then incubated for 1 h at 37 °C. After incubation, the plates were centrifuged at 1,000g for 10 min to pellet cells and debris; 25 µL of the supernatant was then transferred to a polystyrene 384-well assay plate. Hemolysis was determined by measuring the supernatant absorbance at […] (OD405). The absorbance was measured using a Tecan M1000 Pro monochromator plate reader. HC10 and HC50 (concentration at 10% and 50% hemolysis, respectively) were calculated by curve fitting the inhibition values vs. log (concentration) using a sigmoidal dose–response function with variable fitting values for the top, bottom, and slope. […]

[5] = tested on: P. aeruginosa ATCC 27853; test: Antibiotic enhancement of doxycycline; format: cell-based; conditions: for Dox/P.a.: concentration required to restore doxycycline activity: doxycycline at 4.5 µM (2 µg/mL); for Dox/P.a.: fold change, ratio between intrinsic MIC of test compound and combination MIC: doxycycline at 4.5 µM
Procedure: Antibiotic restoring enhancer concentrations were determined using reported protocols (see Supplementary File).
Briefly, restoring enhancer concentrations were determined with an inoculum of 5x10^5 CFU in 200
µL of MHB containing two-fold serial dilutions of each derivative in the presence of doxycycline at 4.5
The lowest concentration of the polyamine
These measurements were independently repeated in triplicate. […]

| MIC [1] [µM] | MIC K.p. ([1]; mean (n = 2)) | MIC [2] [µM] | Dox/P.a.: fold change, ratio between intrinsic MIC of test compound and combination MIC [5] | SMILES | IC50 at 20 h [3] [µM] | Hemolysis (HC10), concentration of compound at 10% hemolytic activity [4] [µM] | Dox/P.a.: concentration required to restore doxycycline activity [5] [µM] |
| --- | --- | --- | --- | --- | --- | --- | --- |
| > 22.5 |  | 17.6 | 1 | C=C[C@]1(C)C[C@@H](OC(=O)CNCCCNCCCCCCCNCCCNCC(=O)O[C@@H]2C[C@@](C)(C=C)[C@@H](O)[C@H](C)[C@]34CCC(=O)[C@H]3[C@@]2(C)[C@H](C)CC4)[C@]2(C)[C@H](C)CC[C@]3(CCC(=O)[C@H]32)[C@@H](C)[C@@H]1O.O=C(O)C(F)(F)F.O=C(O)C(F)(F)F.O=C(O)C(F)(F)F.O=C(O)C(F)(F)F [Compound 9c, N^1,N^1′-(Heptane-1,7-diyl)bis(N^3-(2-(((3aR,4R,5R,7S,8S,9R,9aS,12R)-8-hydroxy-4,7,9,12-tetramethyl-3-oxo-7-vinyldecahydro-4,9a-propanocyclopenta [8]annulen-5-yl)oxy)-2-oxoethyl)propane-1,3-diaminium) 2,2,2-trifluoroacetate] | > 22.5 | >22.5 | 141 |
| > 22.3 |  | 34.8 | 1 | C=C[C@]1(C)C[C@@H](OC(=O)CNCCCNCCCCCCCCNCCCNCC(=O)O[C@@H]2C[C@@](C)(C=C)[C@@H](O)[C@H](C)[C@]34CCC(=O)[C@H]3[C@@]2(C)[C@H](C)CC4)[C@]2(C)[C@H](C)CC[C@]3(CCC(=O)[C@H]32)[C@@H](C)[C@@H]1O.O=C(O)C(F)(F)F.O=C(O)C(F)(F)F.O=C(O)C(F)(F)F.O=C(O)C(F)(F)F [Compound 9d, N^1,N^1′-(Octane-1,8-diyl)bis(N^3-(2-(((3aR,4R,5R,7S,8S,9R,9aS,12R)-8-hydroxy-4,7,9,12-tetramethyl-3-oxo-7-vinyldecahydro-4,9a-propanocyclopenta [8]annulen-5-yl)oxy)-2-oxoethyl)propane-1,3-diaminium) 2,2,2-trifluoroacetate] | > 22.3 | >22.3 | 139 |
| > 21.9 |  | 4.27 | 2 | C=C[C@]1(C)C[C@@H](OC(=O)CNCCCNCCCCCCCCCCNCCCNCC(=O)O[C@@H]2C[C@@](C)(C=C)[C@@H](O)[C@H](C)[C@]34CCC(=O)[C@H]3[C@@]2(C)[C@H](C)CC4)[C@]2(C)[C@H](C)CC[C@]3(CCC(=O)[C@H]32)[C@@H](C)[C@@H]1O.O=C(O)C(F)(F)F.O=C(O)C(F)(F)F.O=C(O)C(F)(F)F.O=C(O)C(F)(F)F [Compound 9e, N^1,N^1′-(Decane-1,10-diyl)bis(N^3-(2-(((3aR,4R,5R,7S,8S,9R,9aS,12R)-8-hydroxy-4,7,9,12-tetramethyl-3-oxo-7-vinyldecahydro-4,9a-propanocyclopenta [8]annulen-5-yl)oxy)-2-oxoethyl)propane-1,3-diaminium) 2,2,2-trifluoroacetate] | > 21.9 | >21.9 | 34.2 |

The next lines start with the compound.

| SMILES | MIC [1] [µM] | MIC K.p. ([1]; mean (n = 2)) | MIC [2] [µM] | Dox/P.a.: fold change, ratio between intrinsic MIC of test compound and combination MIC [5] | IC50 at 20 h [3] [µM] | Hemolysis (HC10), concentration of compound at 10% hemolytic activity [4] [µM] | Dox/P.a.: concentration required to restore doxycycline activity [5] [µM] |
| --- | --- | --- | --- | --- | --- | --- | --- |
| C=C[C@]1(C)C[C@@H](OC(=O)CSCCN(CC)CC)[C@]2(C)[C@H](C)CC[C@]3(CCC(=O)[C@H]32)[C@@H](C)[C@@H]1O [Compound 2, Tiamulin, reference compound] | > 64.8 | no activity | 3.12 |  | > 64.8 | >64.8 | > 405 |
| C=C[C@]1(C)C[C@@H](OC(=O)CNCCCNCCCCNCCCNCC(=O)O[C@@H]2C[C@@](C)(C=C)[C@@H](O)[C@H](C)[C@]34CCC(=O)[C@H]3[C@@]2(C)[C@H](C)CC4)[C@]2(C)[C@H](C)CC[C@]3(CCC(=O)[C@H]32)[C@@H](C)[C@@H]1O.O=C(O)C(F)(F)F.O=C(O)C(F)(F)F.O=C(O)C(F)(F)F.O=C(O)C(F)(F)F [Compound 9a, N^1,N^1′-(Butane-1,4-diyl)bis(N^3-(2-(((3aR,4R,5R,7S,8S,9R,9aS,12R)-8-hydroxy-4,7,9,12-tetramethyl-3-oxo-7-vinyldecahydro-4,9a-propanocyclopenta [8]annulen-5-yl)oxy)-2-oxoethyl)propane-1,3-diaminium) 2,2,2-trifluoroacetate] | > 23.2 |  | 18.1 | 4 | > 23.2 | >23.2 | 18.1 |
| C=C[C@]1(C)C[C@@H](OC(=O)CNCCCNCCCCCCNCCCNCC(=O)O[C@@H]2C[C@@](C)(C=C)[C@@H](O)[C@H](C)[C@]34CCC(=O)[C@H]3[C@@]2(C)[C@H](C)CC4)[C@]2(C)[C@H](C)CC[C@]3(CCC(=O)[C@H]32)[C@@H](C)[C@@H]1O.O=C(O)C(F)(F)F.O=C(O)C(F)(F)F.O=C(O)C(F)(F)F.O=C(O)C(F)(F)F [Compound 9b, N^1,N^1′-(Hexane-1,6-diyl)bis(N^3-(2-(((3aR,4R,5R,7S,8S,9R,9aS,12R)-8-hydroxy-4,7,9,12-tetramethyl-3-oxo-7-vinyldecahydro-4,9a-propanocyclopenta [8]annulen-5-yl)oxy)-2-oxoethyl)propane-1,3-diaminium) 2,2,2-trifluoroacetate] | > 22.7 |  | 17.8 | 4 | > 22.7 | >22.7 | 35.5 |
